Results on 3 molecules are retold here after ChEMBL document CHEMBL1201862, “PubChem BioAssay data set” (2004).

Format in all cases: functional
The target in one assay is T1, Protein RecA (Mycobacterium tuberculosis, UniProt P9WHJ3).
T1 sequence (P9WHJ3 whole entry): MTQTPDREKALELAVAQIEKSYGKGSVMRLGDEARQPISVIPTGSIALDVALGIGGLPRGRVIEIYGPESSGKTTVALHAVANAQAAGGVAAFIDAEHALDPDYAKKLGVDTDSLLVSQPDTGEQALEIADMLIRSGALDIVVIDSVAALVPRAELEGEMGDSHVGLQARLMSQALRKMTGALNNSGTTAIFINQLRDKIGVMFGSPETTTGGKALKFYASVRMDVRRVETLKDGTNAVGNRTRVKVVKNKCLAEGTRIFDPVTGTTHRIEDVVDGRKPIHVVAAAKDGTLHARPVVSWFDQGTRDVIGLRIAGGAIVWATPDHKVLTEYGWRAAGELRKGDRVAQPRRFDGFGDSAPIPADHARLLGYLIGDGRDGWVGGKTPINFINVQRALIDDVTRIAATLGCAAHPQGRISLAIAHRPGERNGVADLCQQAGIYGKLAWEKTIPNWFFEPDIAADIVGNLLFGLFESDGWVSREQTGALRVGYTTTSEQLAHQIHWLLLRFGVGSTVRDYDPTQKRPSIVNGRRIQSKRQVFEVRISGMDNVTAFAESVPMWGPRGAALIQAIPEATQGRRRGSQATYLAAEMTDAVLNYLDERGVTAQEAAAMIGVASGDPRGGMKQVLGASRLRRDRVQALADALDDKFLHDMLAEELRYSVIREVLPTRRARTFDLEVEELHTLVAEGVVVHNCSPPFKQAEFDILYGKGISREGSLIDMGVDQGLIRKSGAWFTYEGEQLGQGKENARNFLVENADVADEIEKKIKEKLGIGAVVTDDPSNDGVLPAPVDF
Nature of the assay: Fluorescence Cell-Free Homogeneous Dose Retest to Identify Inhibitors of RecA-Intein Splicing Activity. [Related pubchem assays (depositor defined):AID2097, AID2223, AID489010, AID492950].

In assay [1] the target is T2, Apoptotic protease-activating factor 1 (Homo sapiens, UniProt O14727).
T2 sequence (O14727 whole entry): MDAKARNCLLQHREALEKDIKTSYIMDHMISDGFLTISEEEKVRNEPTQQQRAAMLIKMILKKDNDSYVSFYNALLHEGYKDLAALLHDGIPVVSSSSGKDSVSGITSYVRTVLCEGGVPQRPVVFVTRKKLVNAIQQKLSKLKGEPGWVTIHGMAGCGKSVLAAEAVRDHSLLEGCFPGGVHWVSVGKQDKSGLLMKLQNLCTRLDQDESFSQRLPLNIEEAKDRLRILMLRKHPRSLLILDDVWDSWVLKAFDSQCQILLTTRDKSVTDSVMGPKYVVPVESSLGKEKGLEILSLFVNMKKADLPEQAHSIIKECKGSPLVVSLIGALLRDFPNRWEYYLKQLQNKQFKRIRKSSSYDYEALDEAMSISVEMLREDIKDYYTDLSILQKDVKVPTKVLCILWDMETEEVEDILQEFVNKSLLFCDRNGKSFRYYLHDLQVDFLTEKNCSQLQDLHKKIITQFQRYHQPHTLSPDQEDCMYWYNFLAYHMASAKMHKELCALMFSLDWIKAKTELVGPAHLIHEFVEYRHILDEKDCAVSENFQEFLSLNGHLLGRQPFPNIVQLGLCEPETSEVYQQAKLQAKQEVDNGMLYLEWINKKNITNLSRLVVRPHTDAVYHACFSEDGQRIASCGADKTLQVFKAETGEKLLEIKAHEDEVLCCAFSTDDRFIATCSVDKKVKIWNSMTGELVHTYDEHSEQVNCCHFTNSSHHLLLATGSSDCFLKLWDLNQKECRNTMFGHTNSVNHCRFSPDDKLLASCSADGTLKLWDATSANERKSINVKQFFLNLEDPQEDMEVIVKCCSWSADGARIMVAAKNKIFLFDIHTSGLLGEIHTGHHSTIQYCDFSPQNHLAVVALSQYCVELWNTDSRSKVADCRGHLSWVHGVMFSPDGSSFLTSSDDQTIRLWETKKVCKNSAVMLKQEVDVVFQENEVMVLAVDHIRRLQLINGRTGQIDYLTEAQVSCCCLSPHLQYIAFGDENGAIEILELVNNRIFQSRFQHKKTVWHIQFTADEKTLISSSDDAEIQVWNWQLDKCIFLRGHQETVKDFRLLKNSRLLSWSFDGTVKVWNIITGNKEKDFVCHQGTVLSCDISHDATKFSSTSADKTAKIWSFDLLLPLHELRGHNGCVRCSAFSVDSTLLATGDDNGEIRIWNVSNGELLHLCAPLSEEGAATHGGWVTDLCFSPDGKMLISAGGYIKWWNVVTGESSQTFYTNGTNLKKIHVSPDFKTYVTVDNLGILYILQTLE

Assay [2] has as its target T3, Replicative DNA helicase DnaB (Mycobacterium tuberculosis, UniProt P9WMR3).
T3 sequence (P9WMR3 whole entry): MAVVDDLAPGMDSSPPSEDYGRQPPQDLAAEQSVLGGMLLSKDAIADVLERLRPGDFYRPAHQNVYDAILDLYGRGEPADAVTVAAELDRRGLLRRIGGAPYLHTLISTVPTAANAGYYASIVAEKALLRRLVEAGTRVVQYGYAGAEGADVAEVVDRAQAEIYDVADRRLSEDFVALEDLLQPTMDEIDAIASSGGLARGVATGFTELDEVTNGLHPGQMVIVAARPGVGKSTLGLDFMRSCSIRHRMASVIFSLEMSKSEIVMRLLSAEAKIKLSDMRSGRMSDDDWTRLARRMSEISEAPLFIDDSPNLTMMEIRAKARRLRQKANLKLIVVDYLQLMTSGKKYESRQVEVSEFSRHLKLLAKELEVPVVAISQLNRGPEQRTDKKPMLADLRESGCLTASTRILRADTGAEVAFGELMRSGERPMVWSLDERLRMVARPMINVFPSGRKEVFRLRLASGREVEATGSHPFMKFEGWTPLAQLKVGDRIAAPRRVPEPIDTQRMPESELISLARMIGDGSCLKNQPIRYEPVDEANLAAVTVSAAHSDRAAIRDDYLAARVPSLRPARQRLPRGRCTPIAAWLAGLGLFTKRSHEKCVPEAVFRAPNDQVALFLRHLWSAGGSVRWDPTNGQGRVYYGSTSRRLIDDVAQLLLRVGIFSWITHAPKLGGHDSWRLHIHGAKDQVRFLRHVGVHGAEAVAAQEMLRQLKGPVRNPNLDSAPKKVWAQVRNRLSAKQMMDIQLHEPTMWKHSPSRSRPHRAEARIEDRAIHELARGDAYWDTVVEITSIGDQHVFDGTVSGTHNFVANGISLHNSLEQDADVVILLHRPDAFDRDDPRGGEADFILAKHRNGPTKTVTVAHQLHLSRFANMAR
The experiment in a line: DnaB intein splicing inhibitors, dose response, biochemical, cell-free fluorescence (AID 449749).

Molecules are shown by their SMILES. Active and inactive are the calls of the source.

Consider `CC(C)=CCC1=C(OCC(=O)O)C(=O)c2ccccc2C1=O`, for which the EC50 on Protein RecA was 7.75 µM (active). In addition, the 50% inhibitory concentration (IC50) in assay [1] was 6.11 µM (active). Besides, the concentration at half-maximal activity (AC50) in assay [2] is 9.19 µM (active).
`Cc1[nH][nH]c(=O)c1C(c1c(C)[nH][nH]c1=O)c1cn(Cc2ccccc2Cl)c2ccccc12`: the concentration giving a half-maximal response (EC50) on Protein RecA is 0.299 µM (active). The concentration at half-maximal activity (AC50) in assay [2] was 0.242 µM (active).
Turning to `Cc1cccc(NC2=C(NC(=O)c3ccccc3)C(=O)c3ccccc3C2=O)c1`, the 50% effective concentration (EC50) at Protein RecA is 1.71 µM (active). In addition, the IC50 in assay [1] was 13.4 µM (active). In addition, the AC50 in assay [2] is 3.96 µM (active).

The EC50 is the concentration at which the effect is half-maximal. What is called IC50 is the concentration that gives 50% inhibition. A word on the AC50: it is the concentration giving half of the maximal activity seen.
